Measurements: patent US12459951B2, “Compounds that interact with RAS superfamily proteins for treatment of cancers, inflammatory diseases, rasopathies, and fibrotic disease” (SHY Therapeutics, LLC, priority 2022, dated 2025)
Counter-ions that a name gives are not always drawn.

Experiments:
KRas wild type = assay: Ras GTP Binding Domain Inhibition Assay (Ras Superfamily Assay); conditions: 20 μM compound; for KRas wild type + SOS: % inh.: with SOS; for KRas wild type: % inh.: without SOS
Outline: (§1)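 His-tagged GTPases immobilised on nickel-coated plates, pre-incubated with compound (20 μM single point, or serial dilution for IC50) 3 h at room temperature, with or without 10-30 μg/mL Sos (residues 556-1049) in the final hour. Bound Cy3- or Cy5-GTP (100 nM, 45 min) measured by fluorescence after washing.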

Rac-1 = molecular target: T1, Rac-1 (Homo sapiens, UniProt P63000); assay: as above; conditions: read-out: Rac-1: % inh.
T1 construct: made in house
Outline: as §1

KRas G12D mutant = assay: as above; conditions: 20 μM compound; for KRas G12D mutant + SOS: % inh.: with SOS; for KRas G12D mutant: % inh.: without SOS
Outline: as §1

Akt phosphorylation = assay: Akt Phosphorylation Assay (western blot), Panc-1; format: cell-based, human; conditions: at 10 μM, * = activation
Procedure: Protocol for Western Akt Cell-Based Phosphorylation Assay
This assay is referred to as the “Akt Phosphorylation Assay” throughout this application.
Human tumor-derived pancreatic cancer cell line Panc-1 (expressing KRas G12D mutant) was purchased from American Type Culture Collection and grown in complete DMEM-High Glucose supplemented with penicillin (100 U/mL), streptomycin (100 μg/mL), and 10% heat-inactivated FBS at 37° C. in a humidified incubator with 5% CO2.
Method 1: Cells were plated at 350000 cells/well density in a 12-well plate, allowed 3 hours to adhere to the plate, then starved in the appropriate medium in the presence of 0.5% FBS overnight. The small molecules to be tested were added to the cells in the final concentration of 10 μM in the presence of 0.3% DMSO for 6 hours incubation at 37° C. Next, cells were stimulated with 1.5 ng/ml EGF for 15 minutes then cells were lysed with lysis buffer containing 1% Triton X-100, EDTA, and Halt™ Protease & Phosphatase Inhibitor Cocktail (Thermo Scientific). Protein concentration was assessed by BCA protein assay (Thermo Scientific). Phosphorylation level of Akt was determined by western blot.
Method 2: Cells were plated at 350000 cells/well density in a 12-well plate in 10% FBS. The next day small molecules to be tested were added to the cells in the final concentration of 10 μM in the presence of 0.3% DMSO for 6 hours incubation at 37° C. For IC50 value determination, serial dilutions of compounds were added to cells under the same conditions. Next, cells were lysed with lysis buffer containing 1% Triton X-100, EDTA, and Halt™ Protease & Phosphatase Inhibitor Cocktail (Thermo Scientific). Protein concentration was assessed by BCA protein assay (Thermo Scientific). Phosphorylation level of Akt was determined by western blot.
Western blot protocol: Equal amounts of protein (15-50 μg) were separated by SDS-PAGE and transferred to nitrocellulose membranes (Invitrogen by Thermo Fisher Scientific). The membrane was stained with Ponceau S Stain (Boston BioProducts) to verify uniform protein loading. Membranes were blocked with 10% milk and phosphorylation levels of Akt were assessed by incubating overnight at 4° C. with anti-phospho-Akt (Ser473) antibody (Cell Signaling) followed by HRP-conjugated secondary antibody (Jackson Immunoresearch, West Grove, PA). Bands were incubated in Amersham ECL Prime Western Blotting Detection Reagent (GE Healthcare) and visualized using the ChemiDoc MP imaging system (Bio-Rad).

| KRas wild type + SOS: % inh. (KRas wild type) | KRas wild type: % inh. (KRas wild type) | inhibition at 20 µM (Rac-1) | KRas G12D mutant + SOS: % inh. (KRas G12D mutant) | KRas G12D mutant: % inh. (KRas G12D mutant) | SMILES | % inh of Akt phosphorylation in Panc-1 (Akt phosphorylation) |
| --- | --- | --- | --- | --- | --- | --- |
| A (A = 1-25% inhibition) | B (B = 26-49% inhibition) | 1 to 25% | B (B = 26-49% inhibition) | B (B = 26-49% inhibition) | CO[C@H]1C[C@H](Nc2nc(-c3nccn3C)nn3cc(-c4ccn(C)n4)c(C)c23)C1 [Compound 103, N-((1r,3r)-3-Methoxycyclobutyl)-5-methyl-2-(1-methyl-1H-imidazol-2-yl)-6-(1-methyl-1H-pyrazol-3-yl)pyrrolo[2,1-f][1,2,4]triazin-4-amine hydrochloride salt] | C* (46-84% activation) |
| D (D = 76-100% inhibition) | D (D = 76-100% inhibition) | 76 to 100% | D (D = 76-100% inhibition) | D (D = 76-100% inhibition) | Cc1c(-c2ccn(C)n2)cn2nc(-c3nccn3C)nc(Nc3cc(C4CC4)[nH]n3)c12 [Compound 104, N-(5-Cyclopropyl-1H-pyrazol-3-yl)-5-methyl-2-(1-methyl-1H-imidazol-2-yl)-6-(1-methyl-1H-pyrazol-3-yl)pyrrolo[2,1-f][1,2,4]triazin-4-amine] | D* (85-100% activation) |
| D (D = 76-100% inhibition) | C (C = 50-75% inhibition) | 76 to 100% | D (D = 76-100% inhibition) | D (D = 76-100% inhibition) | Cc1c(-c2ccn(C)n2)cn2nc(-c3nccn3C)nc(Nc3nccc(OCCN(C)C)n3)c12 [Compound 105, N-(4-(2-(Dimethylamino)ethoxy)pyrimidin-2-yl)-5-methyl-2-(1-methyl-1H-imidazol-2-yl)-6-(1-methyl-1H-pyrazol-3-yl)pyrrolo[2,1-f][1,2,4]triazin-4-amine] | C* (46-84% activation) |
| 0 (0 = 0% inhibition) | A (A = 1-25% inhibition) | 26 to 49% | A (A = 1-25% inhibition) | B (B = 26-49% inhibition) | Cc1c(-c2ccn(C)n2)cn2nc(-c3nccn3C)nc(Nc3nccn3C)c12 [Compound 106, 5-Methyl-N,2-bis(1-methyl-1H-imidazol-2-yl)-6-(1-methyl-1H-pyrazol-3-yl)pyrrolo[2,1-f][1,2,4]triazin-4-amine] | D* (85-100% activation) |
| D (D = 76-100% inhibition) | C (C = 50-75% inhibition) | 76 to 100% | C (C = 50-75% inhibition) | C (C = 50-75% inhibition) | COc1cncnc1Nc1nc(-c2nccn2C)nn2cc(-c3ccn(C)n3)c(C)c12 [Compound 107, N-(5-Methoxypyrimidin-4-yl)-5-methyl-2-(1-methyl-1H-imidazol-2-yl)-6-(1-methyl-1H-pyrazol-3-yl)pyrrolo[2,1-f][1,2,4]triazin-4-amine] | C* (46-84% activation) |
| C (C = 50-75% inhibition) | D (D = 76-100% inhibition) | 76 to 100% | C (C = 50-75% inhibition) | D (D = 76-100% inhibition) | CCc1nc(Nc2nc(-c3nccn3C)nn3cc(-c4ccn(C)n4)c(C)c23)nn1C [Compound 108, N-(5-Ethyl-1-methyl-1H-1,2,4-triazol-3-yl)-5-methyl-2-(1-methyl-1H-imidazol-2-yl)-6-(1-methyl-1H-pyrazol-3-yl)pyrrolo[2,1-f][1,2,4]triazin-4-amine] | D* (85-100% activation) |
| C (C = 50-75% inhibition) | D (D = 76-100% inhibition) | 76 to 100% | C (C = 50-75% inhibition) | D (D = 76-100% inhibition) | Cc1c(-c2ccn(C)n2)cn2nc(-c3nccn3C)nc(Nc3cn(C(C)C)nn3)c12 [Compound 109, N-(1-Isopropyl-1H-1,2,3-triazol-4-yl)-5-methyl-2-(1-methyl-1H-imidazol-2-yl)-6-(1-methyl-1H-pyrazol-3-yl)pyrrolo[2,1-f][1,2,4]triazin-4-amine] | D* (85-100% activation) |
| C (C = 50-75% inhibition) | B (B = 26-49% inhibition) | 50 to 75% | B (B = 26-49% inhibition) | C (C = 50-75% inhibition) | COc1cnc(Nc2nc(-c3nccn3C)nn3cc(-c4ccn(C)n4)c(C)c23)cn1 [Compound 110, N-(5-Methoxypyrazin-2-yl)-5-methyl-2-(1-methyl-1H-imidazol-2-yl)-6-(1-methyl-1H-pyrazol-3-yl)pyrrolo[2,1-f][1,2,4]triazin-4-amine] | C* (46-84% activation) |
| A (A = 1-25% inhibition) | C (C = 50-75% inhibition) | 26 to 49% | B (B = 26-49% inhibition) | B (B = 26-49% inhibition) | Cc1c(-c2ccn(C)n2)cn2nc(-c3nccn3C)nc(Nc3ccn(C4CC4)n3)c12 [Compound 111, N-(1-Cyclopropyl-1H-pyrazol-3-yl)-5-methyl-2-(1-methyl-1H-imidazol-2-yl)-6-(1-methyl-1H-pyrazol-3-yl)pyrrolo[2,1-f][1,2,4]triazin-4-amine] | D* (85-100% activation) |
| 0 (0 = 0% inhibition) | A (A = 1-25% inhibition) | 0% | A (A = 1-25% inhibition) | A (A = 1-25% inhibition) | COc1cccnc1Nc1nc(-c2nccn2C)nn2cc(-c3ccn(C)n3)c(C)c12 [Compound 112, N-(3-Methoxypyridin-2-yl)-5-methyl-2-(1-methyl-1H-imidazol-2-yl)-6-(1-methyl-1H-pyrazol-3-yl)pyrrolo[2,1-f][1,2,4]triazin-4-amine] | D* (85-100% activation) |
| D (D = 76-100% inhibition) | C (C = 50-75% inhibition) | 76 to 100% | D (D = 76-100% inhibition) | D (D = 76-100% inhibition) | Cc1c(-c2ccn(C)n2)cn2nc(-c3nccn3C)nc(Nc3n[nH]c(C4CC4)n3)c12 [Compound 113, N-(5-Cyclopropyl-1H-1,2,4-triazol-3-yl)-5-methyl-2-(1-methyl-1H-imidazol-2-yl)-6-(1-methyl-1H-pyrazol-3-yl)pyrrolo[2,1-f][1,2,4]triazin-4-amine] | D* (85-100% activation) |
| D (D = 76-100% inhibition) | D (D = 76-100% inhibition) | 76 to 100% | D (D = 76-100% inhibition) | D (D = 76-100% inhibition) | COc1ccnc(Nc2nc(-c3nccn3C)nn3cc(-c4ccn(C)n4)c(C)c23)n1.Cl [Compound 114, N-(4-Methoxypyrimidin-2-yl)-5-methyl-2-(1-methyl-1H-imidazol-2-yl)-6-(1-methyl-1H-pyrazol-3-yl)pyrrolo[2,1-f][1,2,4]triazin-4-amine hydrochloride salt] | D* (85-100% activation) |
| C (C = 50-75% inhibition) | D (D = 76-100% inhibition) | 1 to 25% | C (C = 50-75% inhibition) | C (C = 50-75% inhibition) | Cc1c(-c2ccn(C)n2)cn2nc(-c3nccn3C)nc(Nc3ncccn3)c12.Cl [Compound 115, 5-Methyl-2-(1-methyl-1H-imidazol-2-yl)-6-(1-methyl-1H-pyrazol-3-yl)-N-(pyrimidin-2-yl)pyrrolo[2,1-f][1,2,4]triazin-4-amine hydrochloride salt] | D* (85-100% activation) |
